Test results reported in patent publication US20190185479A1, “BICYCLIC NITROGENATED HETEROCYCLIC COMPOUND” (MITSUBISHI TANABE PHARMA CORPORATION, priority 2016, published 2019).

Tests used:
Format in all cases: biochemical
Human PDE7B (hPDE7B) = target: T1, Human PDE7B (hPDE7B) (Homo sapiens, UniProt Q9NP56); assay: Measurement of PDE7 inhibitory activity (Experimental Example 1; residual cAMP, LANCE Ultra cAMP TR-FRET); details: cAMP 3 nmol/L, room temperature 60 minutes
T1 construct: made in house; host or cells: COS-7 cells
T1 sequence (Q9NP56 whole entry): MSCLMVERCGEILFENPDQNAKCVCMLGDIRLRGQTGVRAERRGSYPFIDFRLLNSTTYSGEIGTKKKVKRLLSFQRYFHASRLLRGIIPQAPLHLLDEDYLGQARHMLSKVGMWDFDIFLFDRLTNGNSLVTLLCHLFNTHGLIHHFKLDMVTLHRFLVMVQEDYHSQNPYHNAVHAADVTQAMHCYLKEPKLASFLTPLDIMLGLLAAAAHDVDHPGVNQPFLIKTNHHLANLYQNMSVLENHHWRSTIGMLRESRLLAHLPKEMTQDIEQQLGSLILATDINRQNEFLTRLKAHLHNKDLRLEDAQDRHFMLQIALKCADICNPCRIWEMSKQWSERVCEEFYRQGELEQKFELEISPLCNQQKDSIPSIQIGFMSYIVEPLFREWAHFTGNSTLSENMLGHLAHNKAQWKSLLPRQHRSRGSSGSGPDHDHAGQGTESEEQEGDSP
How it was run: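 hPDE7B from transfected COS-7 cells reacted with 3 nmol/L cAMP (final) and compound (2% DMSO) in 50 mmol/L Tris-HCl pH 7.5, 1 mmol/L MgCl2, 0.1% BSA, 0.5 mmol/L DTT, 60 min at room temperature. Reaction stopped with IBMX; residual cAMP measured by TR-FRET. Inhibition scaled between no-compound and no-enzyme controls.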

hPDE4D = target: T2, hPDE4D (Homo sapiens, UniProt Q08499); assay: PDE4 inhibition assay (IC50), Experimental Example 3; details: for IC50: hPDE4D, read-out: PDE inhibition assay IC50, PDE4; for inhibition at 10 µM: at 10 μmol/L, read-out: inhibition rate (%) at prescribed concentration, PDE4
T2 construct: purchased SB Drug Discovery
T2 sequence (Q08499 whole entry): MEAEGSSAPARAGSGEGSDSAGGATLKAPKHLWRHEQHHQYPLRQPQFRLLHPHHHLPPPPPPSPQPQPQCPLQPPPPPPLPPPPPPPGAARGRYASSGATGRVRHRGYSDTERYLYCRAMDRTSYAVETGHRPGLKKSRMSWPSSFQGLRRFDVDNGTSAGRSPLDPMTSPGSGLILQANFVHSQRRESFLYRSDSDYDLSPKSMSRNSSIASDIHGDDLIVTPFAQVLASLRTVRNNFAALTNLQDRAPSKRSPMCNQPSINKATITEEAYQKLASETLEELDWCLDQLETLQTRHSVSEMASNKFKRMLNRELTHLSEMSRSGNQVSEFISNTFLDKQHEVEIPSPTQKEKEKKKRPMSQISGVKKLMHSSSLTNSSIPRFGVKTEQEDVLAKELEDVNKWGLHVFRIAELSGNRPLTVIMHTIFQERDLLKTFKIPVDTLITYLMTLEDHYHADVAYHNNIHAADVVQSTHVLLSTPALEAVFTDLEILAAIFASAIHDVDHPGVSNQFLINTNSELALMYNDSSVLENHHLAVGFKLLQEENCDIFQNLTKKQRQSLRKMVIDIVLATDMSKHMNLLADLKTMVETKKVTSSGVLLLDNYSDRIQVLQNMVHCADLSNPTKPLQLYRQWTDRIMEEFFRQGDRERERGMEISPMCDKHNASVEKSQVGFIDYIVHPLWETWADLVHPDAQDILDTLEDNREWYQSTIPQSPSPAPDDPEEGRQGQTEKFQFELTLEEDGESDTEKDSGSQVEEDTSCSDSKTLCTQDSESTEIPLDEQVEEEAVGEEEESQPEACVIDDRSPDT
How it was run: (§1)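 Recombinant human enzymes incubated with compound and 3 nmol/L cAMP (final) in Tris-HCl pH 7.5 buffer with MgCl2, BSA, DTT, 2% DMSO final, 60 min at room temperature. Residual cAMP measured by TR-FRET (LANCE Ultra), reaction stopped with 0.5 mmol/L IBMX. IC50 from inhibition relative to no-compound (0%) and no-enzyme (100%) controls.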

hPDE8B = target: T3, hPDE8B (Homo sapiens, UniProt O95263); assay: PDE8 inhibition assay (IC50), Experimental Example 3; details: for inhibition at 1 µM / inhibition at 10 µM: read-out: inhibition rate (%) at prescribed concentration, PDE8; for IC50: hPDE8B, read-out: PDE inhibition assay IC50, PDE8; for inhibition at 10 µM: at 10 μmol/L
T3 construct: purchased SB Drug Discovery
T3 sequence (O95263 whole entry): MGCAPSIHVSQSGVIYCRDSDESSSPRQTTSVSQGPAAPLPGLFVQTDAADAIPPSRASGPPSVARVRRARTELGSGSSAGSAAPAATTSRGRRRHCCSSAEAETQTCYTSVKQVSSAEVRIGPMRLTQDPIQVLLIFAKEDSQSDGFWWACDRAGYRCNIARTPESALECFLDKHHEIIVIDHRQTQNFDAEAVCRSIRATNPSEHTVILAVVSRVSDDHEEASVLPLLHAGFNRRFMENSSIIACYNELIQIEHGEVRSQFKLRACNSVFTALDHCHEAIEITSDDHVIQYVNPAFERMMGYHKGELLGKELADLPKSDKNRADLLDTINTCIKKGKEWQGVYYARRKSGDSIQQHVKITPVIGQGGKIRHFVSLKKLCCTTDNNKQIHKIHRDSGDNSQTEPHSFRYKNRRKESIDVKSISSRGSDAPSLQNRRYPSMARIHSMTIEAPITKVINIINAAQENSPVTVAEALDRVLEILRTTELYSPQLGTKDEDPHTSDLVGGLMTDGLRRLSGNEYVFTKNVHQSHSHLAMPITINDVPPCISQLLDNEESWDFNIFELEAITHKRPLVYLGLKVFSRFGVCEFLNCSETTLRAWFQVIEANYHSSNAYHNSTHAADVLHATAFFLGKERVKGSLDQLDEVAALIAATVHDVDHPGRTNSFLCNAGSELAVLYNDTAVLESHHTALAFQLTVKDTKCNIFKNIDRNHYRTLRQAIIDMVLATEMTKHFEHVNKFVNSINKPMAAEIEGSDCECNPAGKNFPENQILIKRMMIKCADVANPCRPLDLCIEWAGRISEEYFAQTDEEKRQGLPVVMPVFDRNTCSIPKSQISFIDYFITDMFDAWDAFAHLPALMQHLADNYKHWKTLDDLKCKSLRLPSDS
How it was run: as §1

hPDE10A = hPDE10A (Homo sapiens, UniProt Q9Y233); assay: PDE10 inhibition assay (IC50), Experimental Example 3; details: for IC50: hPDE10A, read-out: PDE inhibition assay IC50, PDE10; for inhibition at 100 µM: at 100 μmol/L
Chain of hPDE10A (Q9Y233 290-1055 limits assumed): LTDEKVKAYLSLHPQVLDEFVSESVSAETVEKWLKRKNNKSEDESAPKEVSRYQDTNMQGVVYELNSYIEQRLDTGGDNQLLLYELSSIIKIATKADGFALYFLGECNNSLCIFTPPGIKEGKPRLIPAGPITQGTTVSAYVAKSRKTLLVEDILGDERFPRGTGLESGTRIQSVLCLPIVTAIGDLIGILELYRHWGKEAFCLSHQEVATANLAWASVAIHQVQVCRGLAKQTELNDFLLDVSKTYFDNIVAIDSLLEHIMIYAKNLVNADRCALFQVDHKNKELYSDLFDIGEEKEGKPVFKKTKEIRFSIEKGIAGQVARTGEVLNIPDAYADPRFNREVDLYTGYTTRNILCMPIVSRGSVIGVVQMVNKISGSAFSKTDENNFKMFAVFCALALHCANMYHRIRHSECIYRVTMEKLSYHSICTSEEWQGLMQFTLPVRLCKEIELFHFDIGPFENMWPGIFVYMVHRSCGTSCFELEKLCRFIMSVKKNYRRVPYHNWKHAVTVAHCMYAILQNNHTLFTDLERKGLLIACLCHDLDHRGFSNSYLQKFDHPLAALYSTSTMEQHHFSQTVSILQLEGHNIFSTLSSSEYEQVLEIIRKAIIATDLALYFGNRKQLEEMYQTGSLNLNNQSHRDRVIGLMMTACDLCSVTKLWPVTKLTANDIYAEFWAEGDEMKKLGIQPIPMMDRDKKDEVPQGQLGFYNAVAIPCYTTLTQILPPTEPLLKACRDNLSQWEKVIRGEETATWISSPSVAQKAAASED
How it was run: as §1

[1] = read-out: inhibition rate (%) at prescribed concentration, PDE10
[2] = at 10 μmol/L, read-out: inhibition rate (%) at prescribed concentration, PDE10

Compound	IC50 (Human PDE7B (hPDE7B)) [nM]	IC50 (hPDE4D) [µM]	IC50 (hPDE10A) [µM]	IC50 (hPDE8B) [µM]	inhibition at 10 µM (hPDE10A; [2]) [%]	further results
C[C@H]1C[C@H](n2nnc3c(N)ncnc32)CC(C)(C)C1 (racemic) [Example 109, 3-(trans-3,3,5-trimethylcyclohexyl)-3H-[1,2,3]triazolo[4,5-d]pyrimidin-7-amine]	40	99.2	–	12.9	–	inhibition at 100 µM (hPDE10A; [1]): 24%
Nc1nccn2c(C3CCCC3)nnc12 [Example 161]	110	5.5	–	1.77	27	–
CC1CC(c2nnc3c(N)nccn23)CC(F)(F)C1 (single isomer, unassigned) [Example 216, 3-(trans-3,3-difluoro-5-methylcyclohexyl[1,2,4]triazolo[4,3-a]pyrazin-8-amine]	50	30.6	37.9	16.6	–	–
Nc1nccn2c(C3CCCC4(CC4)C3)nnc12 (single isomer, unassigned) [Example 208, 3-(spiro[2,5]oct-5-yl) [1,2,4]triazolo[4,3-a]pyrazin-8-amine]	< 10	10.3	8.6	3.4	–	–
CC1CCC(C(F)(F)F)CC1c1nnc2c(N)nccn12 (single isomer, unassigned) [Example 174, 3-[2-methyl-5-(trifluoromethyl)cyclohexyl][1,2,4]triazolo[4,3-a]pyrazin-8-amine]	3	6	1.3	6.8	–	–
CC1CCCCC1n1nnc2c(N)ncnc21 (single isomer, unassigned) [Example 192, 3-(trans-2-methylcyclohexyl)-3H-[1,2,3]triazolo[4,5-d]pyrimidin-7-amine]	40	–	8.25	4.18	–	inhibition at 10 µM (hPDE4D): 45%
CN1CCC[C@H](n2nnc3c(N)ncnc32)C1 [Example 135, 3-[(3S)-1-methylpiperidin-3-yl]-3H-[1,2,3]triazolo[4,5-d]pyrimidin-7-amine]	310	–	–	9.41	22	inhibition at 10 µM (hPDE4D): 17%
Nc1cncn2c(C3CCCCC3)nnc12 [Example 189, 3-cyclohexyl[1,2,4]triazolo[4,3-c]pyrimidin-8-amine]	470	–	–	–	0.9	inhibition at 10 µM (hPDE4D): 22%; inhibition at 10 µM (hPDE8B): 24%
CC1(C)CCCC(n2nnc3c(N)ncnc32)C1 (racemic) [Example 128, 3-(3,3-dimethylcyclohexyl)-3H-[1,2,3]triazolo[4,5-d]pyrimidin-7-amine]	20	4.53	–	1.31	43	–
CC1(C)CCCN(c2nnc3c(N)ncc(C(F)(F)F)n23)C1 [Example 252, 3-(3,3-dimethylpiperidin-1-yl)-5-(trifluoromethyl) [1,2,4]triazolo[4,3-a]pyrazin-8-amine]	< 10	1.8	7.4	–	–	inhibition at 1 µM (hPDE8B; at 1 μmol/L): 53%
CC1CCCC(n2nnc3c(N)ncnc32)C1 (single isomer, unassigned) [Example 196, 3-(cis-3-methylcyclohexyl)-3H-[1,2,3]triazolo[4,5-d]pyrimidin-7-amine]	< 10	2.49	–	0.29	49	–
Nc1nccn2c(N3CCCCC34CC4)nnc12 [Example 38]	80	5.21	25	2.74	–	–
Nc1nccn2c(N3CCCC(Cc4ccccc4)C3)nnc12 (centres unmarked) [Example 48]	70	1.3	–	–	–	inhibition at 1 µM (hPDE8B; at 1 μmol/L): 79%; inhibition at 1 µM (hPDE10A; at 1 μmol/L, read-out: inhibition rate (%) at prescribed concentration, PDE10): 52%
CC1(C)CCCN(c2nnc3c(N)ncc(Cl)n23)C1 [Example 248, 5-chloro-3-(3,3-dimethylpiperidin-1-yl) [1,2,4]triazolo[4,3-a]pyrazin-8-amine]	< 10	1.88	5.57	1.51	–	–
Nc1nccn2c(C3[C@H]4CCCC[C@@H]34)nnc12 (stereo partly drawn) [Example 164, 3-[(1R,6S,7r)-bicyclo[4.1.0]hept-7-yl][1,2,4]triazolo[4,3-a]pyrazin-8-amine]	30	3.79	–	4.4	41	–
CC(C)(C)OC(=O)N1CCCCC1c1nnc2c(N)nccn12 (centres unmarked) [Example 32, tert-butyl 2-(8-amino-[1,2,4]triazolo[4,3-a]pyrazin-3-yl)piperidine-1-carboxylate]	80	5.78	22.6	2.27	–	–
CC1CCCC(c2nnc3c(N)ncnn23)C1 (single isomer, unassigned) [Example 72, 3-(cis-3-methylcyclohexyl) [1,2,4]triazolo[3,4-f][1,2,4]triazin-8-amine]	10	1.49	8.91	–	–	inhibition rate (%) at prescribed concentration, PDE8 (hPDE8B; at 1 μmol/L): 62% at 1
Nc1nccn2c(C3CC4(CC4)C3)nnc12 [Example 20]	80	–	–	1.58	22	inhibition at 10 µM (hPDE4D): 40%

Further lines, with some results ahead:

IC50 (Human PDE7B (hPDE7B)) [nM]	IC50 (hPDE4D) [µM]	IC50 (hPDE10A) [µM]	IC50 (hPDE8B) [µM]	inhibition at 10 µM (hPDE10A; [2]) [%]	Compound	further results
< 10	1.6	52.6	–	–	Nc1ncnn2c(C3CCCC(C(F)(F)F)C3)nnc12 (single isomer, unassigned) [Example 244, 3-[cis-3-(trifluoromethyl)cyclohexyl][1,2,4]triazolo[3,4-f][1,2,4]triazin-8-amine]	inhibition at 1 µM (hPDE8B; at 1 μmol/L): 73%
80	5.4	11.9	5.1	–	Nc1nccn2c(N3CCCCCC3)nnc12 [Example 29]	–
30	3.84	–	6.87	–	CC1CCCC(n2nnc3c(N)ncnc32)C1 (single isomer, unassigned) [Example 199, 3-(trans-3-methylcyclohexyl)-3H-[1,2,3]triazolo[4,5-d]pyrimidin-7-amine]	inhibition rate (%) at prescribed concentration, PDE10 (hPDE10A; at 10 μmol/L): 29% at 10
160	3.87	–	8.89	39	Nc1nccn2c(N3CCCCC3)nnc12 [Example 166]	–
< 10	5.9	21.8	9	–	Nc1nccn2c([C@H]3C[C@@H](C(F)(F)F)CCC3(F)F)nnc12 (racemic) [Example 172, 3-[cis-2,2-difluoro-5-(trifluoromethyl)cyclohexyl][1,2,4]triazolo[4,3-a]pyrazin-8-amine]	–
340	–	–	–	49	Nc1ncnc2c1cnn2C1CCCCC1 [Example 181]	inhibition at 10 µM (hPDE4D): 21%; inhibition at 10 µM (hPDE8B): 24%
40	8.3	5.5	5.8	–	C[C@@H]1CCCCN1c1nnc2c(N)nccn12 [Example 22, 3-(2-methylpiperidin-1-yl) [1,2,4]triazolo[4,3-a]pyrazin-8-amine]	–
53	27.1	–	4.33	–	Nc1ncnn2c(C3CCCC(C(F)(F)F)C3)nnc12 (single isomer, unassigned) [Example 75, 3-[cis-3-(trifluoromethyl)cyclohexyl][1,2,4]triazolo[3,4-f][1,2,4]triazin-8-amine]	inhibition at 100 µM (hPDE10A; [1]): 44%
50	5.7	30.6	1.41	–	Nc1ncnc2c1nnn2C1CCCCC1F (single isomer, unassigned) [Example 195, 3-(cis-2-fluorocyclohexyl)-3H-[1,2,3]triazolo[4,5-d]pyrimidin-7-amine]	–
10	3.6	4.8	2.1	–	CC1CCN(c2nnc3c(N)nccn23)CC1C (single isomer, unassigned) [Example 231, 3-(3,4-dimethylpiperidin-1-yl) [1,2,4]triazolo[4,3-a]pyrazin-8-amine]	–
50	5.72	–	–	48	Nc1nccn2c(C3(F)CCCCC3)nnc12 [Example 142, 3-(1-fluorocyclohexyl) [1,2,4]triazolo[4,3-a]pyrazin-8-amine]	inhibition at 10 µM (hPDE8B): 49%
